Experimental data from patent US6485722B1, “Method for selective engraftment of drug-resistant hematopoietic stem cells” (Regents of the University of Minnesota, priority 1996, dated 2002).

Legend:
[1] = MTX toxicity in irradiated mice transplanted with normal (non-transgenic) FVB/N marrow
Method: (§1) Male marrow is used as competitor so that Y chromosome sequences can be used as a quantitative signal for the presence of competitor-derived material at the time of analysis, while the DHFR transgene can be used as a quantitative signal for presence of DHFR-transgenic-derived material.
(§2) Animals in each of the three groups were administered either PBS or MTX at an increasing dose schedule culminating at 4 mg/kg/day. MTX administration was continued out to 60 days post-transplant. […] After 60 days, MTX administration is stopped. A small number of animals were sacrificed at this time to collect marrow samples for subsequent analysis, but most of the animals were maintained for an additional 2 months. At 4 months post-transplant, all surviving animals were sacrificed and bone marrow harvested. Each marrow sample collected was resuspended and then injected into 5 lethally-irradiated secondary female FVB/N recipients (2×10^6 donor cells per secondary recipient), saving the leftover marrow for subsequent molecular analysis. Secondary recipients were maintained for an additional 4 months before sacrificing and harvesting marrow samples.

[2] = test system: stem cells expressing a MTX-resistant DHFR; experiment: Competitive repopulation with 50/50 mixture of normal and DHFR transgenic marrow, Southern blot of marrow DNA; assay type: in vivo, FVB/N mice
Method: as §1, §2

For `CN(Cc1cnc2nc(N)nc(N)c2n1)c1ccc(C(=O)N[C@@H](CCC(=O)O)C(=O)O)cc1` [MTX, methotrexate], the “toxicity of low dose MTX” value ([1]; 0.25 mg/kg/day for 1-4 days, 0.5 mg/kg/day next four days, then 1.0 mg/kg/day, recipients of non-transgenic marrow) was “caused hematopoietic toxicity”, the “time at which animals succumb to MTX induced toxicity” value ([1]; irradiated (900 rads) mice transplanted with 10^7 normal FVB/N marrow cells, MTX increasing dose schedule culminating at 4 mg/kg/day, all animals) was 15-30 days post-transplant and the “toxicity of high dose MTX” value ([1]; mouse, in vivo, 4 mg/kg/day) was “causes not only hematopoietic toxicity but gastrointestinal toxicity as well”. For the same compound, the “DHFR transgene copy number in primary recipients” value ([2]; animals transplanted with transgenic marrow, MTX rather than PBS) was “substantial increase” and the “secondary recipients showing a substantial contribution of transgenic marrow” value ([2]; primary transplant 50% normal / 50% DHFR transgenic marrow, MTX up to 4 mg/kg/day for 60 days, secondary recipients analysed 4 months after secondary transplant) was 5 out of 5.
